The test system of the assay is Saccharomyces cerevisiae lifespan shortening, growth inhibition. The assay can be described thus: Saccharomyces cerevisiae growth inhibition potency – dose response (AID 849).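 Also: yeast growth read as optical density after two days at 30 degrees C.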

SMILES strings stand for the structures. Activity calls are given as the source filed them. No rule for the calls is given here. Bounds are passed on as bounds.

For orientation: IC50 means the concentration that inhibits the measured activity by half.

For the molecule `COc1ccc(OC)c(CCNC(=O)Cn2sc3nc(C)cc(C)c3c2=O)c1`, the IC50 was > 100 µM (inactive).

With `Cc1conc1NC(c1cccs1)c1ccc2cccnc2c1O` (stereo not drawn), the IC50 was 40.8 µM.

For the molecule `CCN1/C(=C/c2ccc3ccc(C)cc3[n+]2CC)Sc2ccccc21`, the IC50 was 21.4 µM.

Consider `Cc1cccc(C(=O)O/N=C/c2c(N3CCOCC3)n(C)c3ccccc23)c1`, for which the IC50 was 35.3 µM.

Regarding `O=C(O)C1C2C=CC(O2)C1C(=O)NC1CCCc2ccccc21` (stereo not drawn), the IC50 was > 100 µM (inactive).

For the molecule `COc1ccc(/C(C)=N/NC(=O)c2ccc(CSc3cccc4cccnc34)cc2)cc1OC`, the IC50 was > 100 µM (inactive).

For the molecule `C=CCn1c2ccccc2c2nnc(SCN3C(=O)c4ccccc4C3=O)nc21`, the IC50 was > 100 µM (inactive).

Turning to `O=C(COc1ccccc1)NNC(=S)NC(=O)c1ccc(Cl)cc1Cl`, the IC50 was 31.6 µM.

Turning to `O=C1c2cccc3cccc(c23)C(=O)N1c1cccnc1`, the IC50 was 29.5 µM.

As to `O=C(Cc1cccs1)NNC(=S)NC(=O)c1ccccc1`, the IC50 is > 100 µM (inactive).

For the molecule `O=C(/C=C/c1ccccc1Cl)c1ccccc(=O)c1O`, the IC50 is 9.76 µM.

Regarding `O=C(CC(=O)c1ccccc1O)c1ccc(F)cc1`, the IC50 is > 100 µM (inactive).

With `Cc1cccc(Cn2ncc(Cl)c(Cl)c2=O)c1`, the IC50 was 37.4 µM.

As to `Cc1ccc(-c2nnc3ccc(SC(C)C(=O)O)nn23)cc1` (stereo not drawn), the IC50 was > 100 µM (inactive).

As to `CCCCCCc1ccc(-c2ncc(N)cn2)cc1`, the IC50 is 25.9 µM.

In the case of `Clc1ccc(COC(Cn2ccnc2)c2ccc(Cl)cc2Cl)c(Cl)c1` (stereo not drawn), the IC50 is less than 0.098 µM.

As for `CC(C)(C)n1nc(-c2ccc(F)cc2)c2c(N)ncnc21`, the half-inhibitory concentration (IC50) is less than 0.098 µM.

Turning to `O=c1c(-c2ccc(Cl)cc2)[n+]([O-])c2ccccc2n1O`, the IC50 is 7.87 µM.

In the case of `CCn1c(Sc2nc(C)nc3scc(-c4cccs4)c23)n[nH]c1=O`, the IC50 was > 100 µM (inactive).

Consider `Cc1ccc(NN2C(=O)C=C(c3ccc(Cl)cc3)C2=O)cc1`, for which the concentration for half-maximal inhibition (IC50) is 18.4 µM.

On to `O=C(C1=C(O)/C(=C/c2ccc(O)cc2)CCC1)C(F)(F)F`, for which the IC50 is > 100 µM (inactive).

Consider `O=C(CSC1=NS(=O)(=O)c2ccccc21)Nc1ccccc1`, for which the IC50 was > 100 µM (inactive).

For the molecule `S=C(NCc1ccc(Cl)cc1)NC12CC3CC(CC(C3)C1)C2`, the IC50 is > 100 µM (inactive).

For `CC(C)N=c1scc(-c2ccco2)n1/N=C/c1ccc(O)c(O)c1`, the half-inhibitory concentration (IC50) was 49.1 µM.

With `Oc1cccc2ccc(Nc3ccccn3)nc12`, the IC50 was 14 µM.

`CCOC(=O)CNC(=O)CSc1nnc(-c2ccco2)n1Cc1ccco1`: the IC50 is > 100 µM (inactive).

As for `CC(Oc1ccc2ccccc2c1)C(=O)NNC(=S)NC(=O)c1ccco1` (stereo not drawn), the IC50 is 17.7 µM.

`COc1ccc2nc(/N=C(\N)NC(=O)Nc3ccccc3)nc(C)c2c1`: the IC50 was 50.4 µM.

With `O=C(CC(O)(C(F)(F)F)C(F)(F)F)Nc1ccc(Cl)c(Cl)c1`, the IC50 is 12 µM.

`Cc1ccc(Oc2nc(CN3CCOCC3)nc3sc4c(c23)CCC(C)C4)cc1C` (stereo not drawn): the IC50 was 26.1 µM.

On to `Oc1c(I)cc(Cl)c2cccnc12`, for which the IC50 is 23 µM.

As for `O=C(CCSc1nnc(-c2ccncc2)o1)Nc1ccc(Cl)cc1`, the IC50 was 37.7 µM.

On to `O=C(O)CCC(=O)N1CCN(c2nc(-c3ccccc3Cl)c3cc(Br)ccc3n2)CC1`, for which the IC50 is 29.3 µM.

As for `O=C(O)Cc1cc(I)c(Oc2ccc(O)c(I)c2)c(I)c1`, the IC50 was 23.9 µM.

For `Cc1cc(-c2ccco2)c(C#N)c2nc3ccccc3n12`, the IC50 is 5.77 µM.

On to `O/N=C/c1cc(Cl)ccc1OCc1cccc2ccccc12`, for which the IC50 was > 100 µM (inactive).

Turning to `CN1CCN(CC(=O)N2CCn3c4c(c5cc(C6CCCCC6)ccc53)CCCC42)CC1` (stereo not drawn), the IC50 was > 100 µM (inactive).

For the molecule `CCOc1ccc(NCc2nc3ccccc3n2CCOc2ccccc2)cc1`, the IC50 is > 100 µM (inactive).

In the case of `O=[N+]([O-])c1ccc(CN2CCCCCC2)s1`, the IC50 was > 100 µM (inactive).

On to `CCOC(=O)/C(=N\Nc1ccccc1Cl)N1CCN(Cc2ccccc2)CC1`, for which the concentration for half-maximal inhibition (IC50) is 17.9 µM.

Turning to `Cc1c(N=Cc2cc(Br)cc(Br)c2O)cccc1C(=O)O`, the IC50 is 23.7 µM.

On to `Oc1c(N=Nc2ccccn2)ccc2ccccc12`, for which the IC50 is 15.5 µM.

`COc1ccc2c(c1)[nH]c1c(Cl)ncnc12`: the IC50 is 29.9 µM.

Consider `Cc1cccc(/C(N)=N/OC(=O)c2ccc(F)cc2)c1`, for which the concentration for half-maximal inhibition (IC50) was 23.8 µM.

In the case of `CCCCNC(=S)NCc1ccc2c(c1)cc(C)n2C`, the IC50 is > 100 µM (inactive).

`CCOC(=O)C(=NC(C)CC)NNc1ccc(Br)cc1` (stereo not drawn): the IC50 is 8.41 µM.

For the molecule `O=c1cc(-c2ccncc2)oc2ccccc12`, the IC50 was 51.1 µM.

Regarding `COC1=C(c2ccccc2)C(=O)c2ccccc2C1=O`, the half-inhibitory concentration (IC50) is 16.2 µM.

In the case of `O=C(Nc1cccc(C(F)(F)F)c1)C(Sc1cccc[n+]1[O-])c1ccccc1` (stereo not drawn), the IC50 was 21.5 µM.

In the case of `Oc1c(CN2CCCCC2)cc(Br)c2cccnc12`, the IC50 was 11.2 µM.

As for `Oc1c(Cl)cc(Cl)c2c1NCCC2`, the IC50 is 17.4 µM.

`CCCCCCN1N=C(C)C(C(=O)c2ccc(Cl)cc2)C1=O` (stereo not drawn): the IC50 is 16.4 µM.

For `COc1cc(CNCCN2CCOCC2)ccc1OCc1cccc(Cl)c1`, the IC50 is > 100 µM (inactive).

As to `CCCCSc1nc(C)c(C(C)=O)cc1C#N`, the IC50 was > 100 µM (inactive).

Turning to `C=CCN1C(=O)/C(=C/c2cccs2)C(=O)NC1=S`, the IC50 was 17.6 µM.

In the case of `CCN1CCN(C(=O)C(NS(=O)(=O)c2ccc3nc(C)sc3c2)C(C)C)CC1` (stereo not drawn), the IC50 is > 100 µM (inactive).

`O=C(Nc1nc(-c2ccccn2)cs1)c1ncc(Cl)c(Cl)c1Cl`: the IC50 was > 100 µM (inactive).

In the case of `NNC(=O)c1ccc(COc2cccc3ccccc23)cc1`, the IC50 was 30.3 µM.

For the molecule `CCCS(=O)(=O)c1nnnn1-c1cccc(OC)c1`, the IC50 was 3.4 µM.

As to `CC/C(C)=N/Nc1cccc([N+](=O)[O-])c1`, the IC50 was 7.6 µM.

With `CCCc1cc(C(=O)Cc2ccc(F)cc2)c(O)cc1O`, the IC50 is 48.3 µM.

On to `Cn1c(C(=O)N2CCC(C(=O)N3CCN(Cc4ccc5c(c4)OCO5)CC3)CC2)cc2sccc21`, for which the IC50 was > 100 µM (inactive).

As to `O=c1cc(-c2ccccc2)[nH]n1-c1nc2ccccc2[nH]1`, the IC50 is 12.2 µM.

On to `Oc1cccc2ccc(/C=C/c3cccs3)nc12`, for which the IC50 is 37.5 µM.

On to `Clc1cc2nc3ccccn3c2cc1Cl`, for which the IC50 was 51.5 µM.

Turning to `Cc1cc(C)nc(/N=c2/ssnc2Cl)c1`, the IC50 was > 100 µM (inactive).

In the case of `O=C(COc1ccccc1)N1CCN=C1SCc1cccnc1`, the IC50 is > 100 µM (inactive).

Turning to `Cc1ccc(-c2nn3c(C)nnc3s2)cc1NC(=O)c1ccc(OC(C)C)cc1`, the IC50 was > 100 µM (inactive).

As to `CCc1cccc(C)c1NC(=S)NCc1ccc2[nH]c(C)cc2c1`, the IC50 is 37.5 µM.

For `Cc1nn(-c2ccc(F)cc2)c2sc(C(=O)O)cc12`, the IC50 is 30.9 µM.

Consider `Cc1ccc2nc(-c3ccc(NS(C)(=O)=O)cc3)cc(-c3ccccc3)c2c1`, for which the IC50 was 43.2 µM.

As for `O=C(CC(=O)c1cc(Cl)ccc1O)c1ccccc1`, the IC50 was > 100 µM (inactive).

For the molecule `Oc1c(Br)cc(Br)cc1/C=N/c1nc2c(s1)CCCC2`, the IC50 was 17.5 µM.

As to `O=C(Nc1nc(-c2ccccn2)cs1)c1ccc(Cl)s1`, the half-inhibitory concentration (IC50) was 2.85 µM.

Consider `CCCc1cc(C(=O)NC2CCCCC2)no1`, for which the IC50 was > 100 µM (inactive).

As for `Cc1onc(-c2ccccc2)c1C(=O)NC(=S)NNC(=O)c1ccc(O)cc1O`, the IC50 is > 100 µM (inactive).

`Cc1cc(C)cc(NS(=O)(=O)c2cnc(Cl)c(Cl)c2)c1`: the IC50 was 47.5 µM.

Regarding `O=[N+]([O-])c1ccc(O)c(/C=N/Nc2ccccn2)c1`, the IC50 is 31 µM.

In the case of `Cc1ccc(N/N=C(\C#N)C(N)=S)c(C)c1`, the IC50 was > 100 µM (inactive).

Regarding `Cn1c2ccccc2c(=O)n2c(=O)c3ccccc3cc12`, the IC50 was 52.5 µM.

Consider `O=c1c2ccccc2nc2c3ccccc3c3nncn3n12`, for which the IC50 is 49.9 µM.

On to `CCN(CC)N=Nc1[nH]nc2nc(C)cc(C)c12`, for which the IC50 was 7.74 µM.

`Cn1c(N2CCOCC2)c(/C=N/OC(=O)c2ccc(F)cc2)c2ccccc21`: the IC50 was 42.2 µM.

For `Cn1cccc1C(=O)Nc1nc(-c2ccccn2)cs1`, the IC50 is 33.7 µM.

`Cc1ccc(/C=C/C(=O)c2ccccc(=O)c2O)c(C)c1`: the IC50 was 4.42 µM.

Regarding `CCc1cccc2c(C(=O)COC(=O)c3ccc([N+](=O)[O-])s3)c[nH]c12`, the IC50 was 29.2 µM.

Take `Nc1c(Cl)ncnc1N/N=C/c1ccccn1`: the IC50 was 11.2 µM.

With `CCc1cccc(C)c1NC(=S)NCCc1c(C)[nH]c2ccc(C)cc12`, the IC50 was 41 µM.

Consider `CCCCOC(=O)Sc1nc2ccccc2o1`, for which the IC50 is 16 µM.

Consider `CCOCCCNC(=O)c1ccc(Br)cc1`, for which the IC50 is > 100 µM (inactive).

Consider `CCc1cc(-c2n[nH]c(C)c2Oc2ccc(C(C)C)cc2)c(O)cc1O`, for which the IC50 is 31.4 µM.

Consider `Cc1nc2c(c(C)c1C#N)C(=O)c1ccccc1-2`, for which the IC50 is 38.8 µM.

As for `Cc1ccc(N/N=C/c2c(O)cc(C)oc2=O)cc1`, the IC50 was 24.3 µM.

Take `Cc1ccc(C(=O)c2c(C)oc3c2C(=O)C(=O)c2ccccc2-3)cc1`: the IC50 was 48.1 µM.

As to `CCc1ccc2c(c1)C1(NN=C(c3ccc(C)cc3)S1)C(=O)N2` (stereo not drawn), the IC50 is 23.8 µM.

Take `O=S(=O)(Cc1ccccc1)NCc1cccnc1`: the IC50 was > 100 µM (inactive).

For `COc1ccc(OC)c(C2CC(=O)N3CN(c4cccc(Cl)c4)CSC3=C2C#N)c1` (stereo not drawn), the IC50 is > 100 µM (inactive).

For the molecule `CC(C)(CNC(=S)NCCc1ccccc1)CNC(=S)NCCc1ccccc1`, the IC50 is > 100 µM (inactive).

Take `CN1C(=O)C(O)(CC(=O)c2ccccc2O)c2cc(Br)ccc21` (stereo not drawn): the IC50 was > 100 µM (inactive).

With `O=c1c2cccc3c2c(nn1CN1CCOCC1)-c1ccccc1-3`, the IC50 was 23.5 µM.

Consider `Cc1ccc(N=Nc2ccc(O)c3ncccc23)cc1`, for which the IC50 is 34.3 µM.

For `COc1ccc(CNC(=O)CSc2nnc(-c3ccc(NC(C)=O)cc3)n2C)cc1`, the IC50 is > 100 µM (inactive).

`O=[N+]([O-])c1ccc(C2Oc3ccccc3C3CC(c4ccccc4)=NN32)s1` (stereo not drawn): the IC50 is > 100 µM (inactive).

The values are drawn from PubChem BioAssay AID849 (SRMLSC, 2007).
